Measurements from US20050226821A1, “Cosmetic formulations containing l-arginine oligomers” (priority 2002, published 2005).

How the values were obtained:
human subjects = assay: Topical lip color and contour enhancement, image analysis of lip area after lip gloss application; type: in vivo; settings: mean across 1, 5, 10, 15 and 30 minutes after application, Revlon Lip Gloss base
Experimental: A preparation of (L-arg)-(L-arg)-(L-arg)-(L-arg)-(L-arg)-(L-arg)-(L-arg)-(L-arg)-(L-arg) or [LR9] was obtained from Sigma Genosys at >70% purity. […], a 1× stock of LR9 for lip enhancement was prepared as 35 mg in 50 μl pbs, which was added to 2.0 ml of Revlon Lip Gloss base for the following groups: • LR9 • Control (base only)
After addition of LR9 to lip gloss base, samples were mixed to homogeneity and stored at room temperature overnight. After baseline image acquisition using a Minolta Dimage 7 digital camera set to 105 macro (1:1) with standard lighting and scaling conditions, human subjects underwent topical application of LR9 or control gloss. All participants were blinded with respect to treatment or control application. Additional digital micrographs were acquired at time 0, 1, 5, 10, 15, and 30 minutes after lip gloss application. The gloss was then removed and participants asked to record duration of any lip contour or color changes. Additionally, any complications (irritation, etc) were also tracked for each. Each subject was treated at different timepoints with both groups (treatment or control). Image analysis of total photographic area was performed for each group, with care taken to normalize each to scales included at the time of photograph acquisition. Baseline images (pre-application) were verified to have statistically similar values between pre-LR9 gloss and pre-base gloss applications for each participant. Mean and standard error across timepoints 1, 5, 10, 15, and 30 minutes were determined for each participant after LR9-gloss or base gloss application. Values for each as well as photos acquired at matching timepoints are presented by participant below for 3 participants. [drawing]

C57 black six mice = assay: Topical enhancement of hair growth after depilation, daily application for 14 days; type: in vivo; parameters: key to Hair Shaft Length, Comparison anova (95) vs. control / Follicle Area, Comparison anova (95) vs. control / Number of follicles per cross-section, Comparison anova (95) vs. control: **: significant by fisher PLSD and Scheffe F-test (P = 0.0001)
Experimental: A preparation of (L-arg)-(L-arg)-(L-arg)-(L-arg)-(L-arg)-(L-arg)-(L-arg)-(L-arg)-(L-arg) or [LR9] was obtained from Sigma Genosys at >70% purity. To achieve a therapeutic benefit on hair growth, a 10× stock of LR9 was prepared as 70 mg in 80 μl PBS. To 0.2 ml of Cetaphil moisturizer base was added the following: • LR9: 20 μl of 10× LR9 stock • Control: 20 μl PBS
After addition of LR9/PBS to moisturizer base, samples were mixed to homogeneity and stored at 4C overnight. C57 black six mice at 8 weeks of age were anesthetized with 3% isoflurane by inhalation, were shaved, and underwent depilation at mid-scapular dorsal region of 2 cm×2 cm with a rosin mixture (Surgiwax, Ardell, Commerce, Calif.) to induce the synchronized adolescent first hair cycle. Moisturizer was applied daily at 0.2 cc per day for either LR9 treatment or control for a fourteen day period at n=4 per group. After 14 days application the treated skin segment was harvested en bloc and subdivided into three equal portions: a cranial portion, a left lateral portion and a right lateral portion. The cranial portion and the left lateral portion were fixed in 10% neutral buffered formalin for 12-16 hours, then rinsed in 70% ethanol and embedded in paraffin. The right lateral portion was snap frozen in OCT medium at the time of harvest and stored at −35C until use.
Paraffin-embedded specimens were sectioned at 4-6 microns, deparaffinized, and stained with a combination of Verhoeff elastica stain and the Masson trichrome stain for morphological assessment of follicle area and number. Frozen samples underwent random hair pulls to determine hair shaft length. All procedures and analyses were performed by blinded observers. […] Images were analyzed using Image Pro Plus software (Media Cybernetics, Silver Spring, Md.) to determine total cross-sectional follicle area, follicle number, or hair length. Mean and standard error were assessed using Statview (Abacus Concepts, Berkeley, Calif.), with comparisons made using ANOVA repeated measures and significance determined at 95% with post-hoc testing using Fisher PLSD or Scheffe F-test.

(L-arg)-(L-arg)-(L-arg)-(L-arg)-(L-arg)-(L-arg)-(L-arg)-(L-arg)-(L-arg) [LR9]
Mean Area (human subjects; first of 3 participants): 7.745 sq. in.
Mean Area (human subjects; second of 3 participants): 7.411 sq. in.
Mean Area (human subjects; third of 3 participants): 7.911 sq. in.
Number of follicles per cross-section, Mean (C57 black six mice; 14 days topical): 406.417
Hair Shaft Length, Mean (C57 black six mice; 14 days topical, 0.2 cc per day in Cetaphil moisturizer base, n=4, 1 pixel = 2.774 microns): 1612.424 pixels
Follicle Area (by total x-sectional area), Mean (C57 black six mice; 14 days topical, 1 square pixel = 7.69 square microns): 53546.00 square pixels
Follicle Area, Comparison anova (95) vs. control (C57 black six mice; 14 days, LR9 vs. control): **
Hair Shaft Length, Comparison anova (95) vs. control (C57 black six mice; 14 days, LR9 vs. control): **
Number of follicles per cross-section, Comparison anova (95) vs. control (C57 black six mice; 14 days, LR9 vs. control): **
Hair growth as measured by hair shaft length, total follicle area, and number of hair follicles (C57 black six mice; without any additional transdermal delivery platform): statistically significantly enhance hair growth
